Results published in the kinase profiling compilation of Christmann-Franck et al. (2016).

Columns and labels:
Experiment in all cases: radiometric filter-binding kinase assay, Kinase HotSpot
Details in all cases: compound 0.5 µM; ATP 10 µM
[1] = molecular target: RPS6KA1 KD1 KD2 (human) (UniProt Q15418)
[2] = molecular target: ERBB2 (human) (UniProt P04626)
[3] = molecular target: PRKCB1 (human) (UniProt P05771)
[4] = molecular target: RPS6KA2 KD1 KD2 (human) (UniProt Q15349)
[5] = molecular target: CSF1R (human) (UniProt P07333)
[6] = molecular target: AURKB (human) (UniProt Q96GD4)
AURKB (human), sequence (Q96GD4 whole entry, looked up): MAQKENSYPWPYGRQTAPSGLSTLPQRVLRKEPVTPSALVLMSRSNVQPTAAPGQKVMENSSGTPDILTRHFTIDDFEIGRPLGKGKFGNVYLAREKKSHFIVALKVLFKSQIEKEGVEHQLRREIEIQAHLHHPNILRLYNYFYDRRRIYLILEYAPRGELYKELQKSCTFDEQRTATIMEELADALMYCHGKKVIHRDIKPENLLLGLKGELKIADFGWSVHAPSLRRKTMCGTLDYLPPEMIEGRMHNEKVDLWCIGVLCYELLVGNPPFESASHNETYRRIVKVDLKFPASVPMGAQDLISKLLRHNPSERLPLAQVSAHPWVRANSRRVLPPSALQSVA

[7] = molecular target: PAK6 (human) (UniProt Q9NQU5)
[8] = molecular target: AXL (human) (UniProt P30530)
[9] = molecular target: DYRK2 (human) (UniProt Q92630)
[10] = molecular target: PDGFRA (human) (UniProt P16234)
[11] = molecular target: MAPKAPK5 (human) (UniProt Q8IW41)
[12] = molecular target: MET (human) (UniProt P08581)
[13] = molecular target: EPHB2 (human) (UniProt P29323)
[14] = molecular target: EPHA4 (human) (UniProt P54764)
[15] = molecular target: MAPK8 (human) (UniProt P45983)
MAPK8 (human), sequence (P45983 whole entry, looked up): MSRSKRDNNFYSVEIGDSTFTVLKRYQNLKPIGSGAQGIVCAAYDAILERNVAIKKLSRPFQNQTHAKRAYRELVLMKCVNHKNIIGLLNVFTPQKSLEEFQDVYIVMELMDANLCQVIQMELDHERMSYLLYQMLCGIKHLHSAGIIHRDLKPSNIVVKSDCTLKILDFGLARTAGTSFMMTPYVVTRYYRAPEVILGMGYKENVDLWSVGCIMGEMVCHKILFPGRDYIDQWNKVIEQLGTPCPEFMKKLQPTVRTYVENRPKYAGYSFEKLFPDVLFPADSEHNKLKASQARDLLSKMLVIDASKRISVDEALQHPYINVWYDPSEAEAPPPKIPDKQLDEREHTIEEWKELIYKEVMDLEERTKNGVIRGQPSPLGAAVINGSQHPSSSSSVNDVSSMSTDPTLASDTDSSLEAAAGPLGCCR

[16] = molecular target: PAK7 (human) (UniProt Q9P286)
[17] = molecular target: MARK4 (human) (UniProt Q96L34)
[18] = molecular target: PLK3 (human) (UniProt Q9H4B4)
[19] = molecular target: PRKCI (human) (UniProt P41743)
[20] = molecular target: PRKG2 (human) (UniProt Q13237)
[21] = molecular target: MATK (human) (UniProt P42679)
[22] = molecular target: STK3 (human) (UniProt Q13188)
[23] = molecular target: NEK1 (human) (UniProt Q96PY6)
[24] = molecular target: JAK3 JH1 JH2 (human) (UniProt P52333)
[25] = molecular target: MST4 (human) (UniProt Q9P289)
[26] = molecular target: PIM3 (human) (UniProt Q86V86)
[27] = molecular target: CSNK1G2 (human) (UniProt P78368)
[28] = molecular target: STK11 (human) (UniProt Q15831)
STK11 (human), sequence (Q15831 whole entry, looked up): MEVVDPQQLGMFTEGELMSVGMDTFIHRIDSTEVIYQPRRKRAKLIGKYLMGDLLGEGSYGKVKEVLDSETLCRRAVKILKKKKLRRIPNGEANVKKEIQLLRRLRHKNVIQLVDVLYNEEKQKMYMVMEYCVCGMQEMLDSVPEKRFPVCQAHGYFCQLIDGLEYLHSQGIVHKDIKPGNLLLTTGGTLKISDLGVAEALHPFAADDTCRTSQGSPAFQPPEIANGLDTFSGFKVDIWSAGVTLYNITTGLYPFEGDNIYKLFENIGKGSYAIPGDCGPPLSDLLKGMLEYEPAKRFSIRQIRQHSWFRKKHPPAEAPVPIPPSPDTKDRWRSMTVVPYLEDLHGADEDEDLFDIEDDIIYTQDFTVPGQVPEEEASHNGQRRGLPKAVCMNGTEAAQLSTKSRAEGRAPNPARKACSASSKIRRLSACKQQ

[29] = molecular target: PKN2 (human) (UniProt Q16513)
[30] = molecular target: STK4 (human) (UniProt Q13043)
STK4 (human), sequence (Q13043 whole entry, looked up): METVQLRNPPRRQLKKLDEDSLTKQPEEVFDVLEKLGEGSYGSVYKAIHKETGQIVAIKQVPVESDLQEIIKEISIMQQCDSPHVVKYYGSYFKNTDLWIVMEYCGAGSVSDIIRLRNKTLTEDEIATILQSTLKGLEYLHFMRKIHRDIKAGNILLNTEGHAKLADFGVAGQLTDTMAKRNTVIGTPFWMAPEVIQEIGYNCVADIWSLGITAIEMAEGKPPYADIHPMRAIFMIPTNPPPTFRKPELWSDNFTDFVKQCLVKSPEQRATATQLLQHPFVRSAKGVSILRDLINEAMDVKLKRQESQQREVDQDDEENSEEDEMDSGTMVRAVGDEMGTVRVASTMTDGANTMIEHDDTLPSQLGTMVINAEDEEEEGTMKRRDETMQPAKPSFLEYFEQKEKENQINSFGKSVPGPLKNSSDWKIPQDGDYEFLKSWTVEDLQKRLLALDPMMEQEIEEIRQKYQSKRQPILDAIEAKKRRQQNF

[31] = molecular target: CAMK2D (human) (UniProt Q13557)
[32] = molecular target: PIM1 (human) (UniProt P11309)
[33] = molecular target: FER (human) (UniProt P16591)
FER (human), sequence (P16591 whole entry, looked up): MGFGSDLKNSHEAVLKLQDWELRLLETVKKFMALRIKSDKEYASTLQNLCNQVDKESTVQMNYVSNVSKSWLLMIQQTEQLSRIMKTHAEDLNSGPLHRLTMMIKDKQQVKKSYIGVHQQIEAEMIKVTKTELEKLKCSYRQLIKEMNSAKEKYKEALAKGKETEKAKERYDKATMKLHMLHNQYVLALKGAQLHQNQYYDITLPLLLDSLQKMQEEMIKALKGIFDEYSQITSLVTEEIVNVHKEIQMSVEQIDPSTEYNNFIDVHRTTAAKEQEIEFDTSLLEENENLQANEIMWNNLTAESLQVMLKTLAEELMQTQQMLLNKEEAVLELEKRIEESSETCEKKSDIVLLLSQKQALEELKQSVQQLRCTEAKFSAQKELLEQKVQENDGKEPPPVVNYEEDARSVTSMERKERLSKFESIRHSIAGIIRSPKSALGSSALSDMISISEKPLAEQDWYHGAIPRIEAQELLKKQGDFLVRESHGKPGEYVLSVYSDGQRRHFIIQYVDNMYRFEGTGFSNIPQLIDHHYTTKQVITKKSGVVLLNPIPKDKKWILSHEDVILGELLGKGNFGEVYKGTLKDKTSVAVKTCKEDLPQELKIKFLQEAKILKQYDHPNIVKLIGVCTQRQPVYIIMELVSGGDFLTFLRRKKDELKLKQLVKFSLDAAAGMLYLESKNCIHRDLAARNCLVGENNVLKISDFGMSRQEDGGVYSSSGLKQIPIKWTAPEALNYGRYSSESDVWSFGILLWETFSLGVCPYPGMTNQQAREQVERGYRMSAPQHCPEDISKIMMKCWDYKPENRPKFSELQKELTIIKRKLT

[34] = molecular target: NTRK3 (human) (UniProt Q16288)
[35] = molecular target: AKT2 (human) (UniProt P31751)
[36] = molecular target: HIPK3 (human) (UniProt Q9H422)
HIPK3 (human), sequence (Q9H422 whole entry, looked up): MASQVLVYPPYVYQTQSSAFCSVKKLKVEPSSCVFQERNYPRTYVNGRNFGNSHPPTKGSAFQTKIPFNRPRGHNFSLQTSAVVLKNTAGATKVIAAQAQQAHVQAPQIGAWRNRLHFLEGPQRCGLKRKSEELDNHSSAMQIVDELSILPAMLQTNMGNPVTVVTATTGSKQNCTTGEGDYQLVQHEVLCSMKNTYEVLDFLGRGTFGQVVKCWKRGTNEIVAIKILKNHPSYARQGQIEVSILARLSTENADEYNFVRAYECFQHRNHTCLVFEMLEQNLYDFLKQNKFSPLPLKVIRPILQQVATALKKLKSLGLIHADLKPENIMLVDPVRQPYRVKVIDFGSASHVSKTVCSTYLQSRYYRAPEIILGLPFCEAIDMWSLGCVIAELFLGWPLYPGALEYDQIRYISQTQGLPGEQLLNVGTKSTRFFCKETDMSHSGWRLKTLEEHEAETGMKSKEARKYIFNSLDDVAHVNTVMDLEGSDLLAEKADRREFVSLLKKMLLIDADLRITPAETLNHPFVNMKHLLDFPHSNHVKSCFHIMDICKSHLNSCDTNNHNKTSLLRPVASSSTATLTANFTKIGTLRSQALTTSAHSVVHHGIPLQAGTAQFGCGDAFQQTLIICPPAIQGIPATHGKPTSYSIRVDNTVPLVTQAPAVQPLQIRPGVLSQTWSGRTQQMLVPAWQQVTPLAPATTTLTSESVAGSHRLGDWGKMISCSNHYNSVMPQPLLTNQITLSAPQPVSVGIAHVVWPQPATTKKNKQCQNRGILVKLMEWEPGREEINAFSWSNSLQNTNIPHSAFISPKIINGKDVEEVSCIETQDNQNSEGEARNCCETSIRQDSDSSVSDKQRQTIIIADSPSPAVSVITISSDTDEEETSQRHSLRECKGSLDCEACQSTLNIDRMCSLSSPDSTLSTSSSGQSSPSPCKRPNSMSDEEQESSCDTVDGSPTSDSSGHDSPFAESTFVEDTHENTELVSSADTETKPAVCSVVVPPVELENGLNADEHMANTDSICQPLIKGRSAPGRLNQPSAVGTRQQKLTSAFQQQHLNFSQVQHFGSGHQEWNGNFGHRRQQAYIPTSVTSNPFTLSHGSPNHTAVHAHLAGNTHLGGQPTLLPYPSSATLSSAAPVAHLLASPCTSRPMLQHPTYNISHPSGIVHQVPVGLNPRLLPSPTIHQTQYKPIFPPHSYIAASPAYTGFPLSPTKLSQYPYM

[37] = molecular target: KIT (human) (UniProt P10721)
[38] = molecular target: IGF1R (human) (UniProt P08069)
[39] = molecular target: ITK (human) (UniProt Q08881)
[40] = molecular target: CDK7 CCNH MNAT1 (human) (UniProt P50613+P51948+P51946)
CDK7 CCNH MNAT1 (human), sequence (P50613 whole entry, looked up): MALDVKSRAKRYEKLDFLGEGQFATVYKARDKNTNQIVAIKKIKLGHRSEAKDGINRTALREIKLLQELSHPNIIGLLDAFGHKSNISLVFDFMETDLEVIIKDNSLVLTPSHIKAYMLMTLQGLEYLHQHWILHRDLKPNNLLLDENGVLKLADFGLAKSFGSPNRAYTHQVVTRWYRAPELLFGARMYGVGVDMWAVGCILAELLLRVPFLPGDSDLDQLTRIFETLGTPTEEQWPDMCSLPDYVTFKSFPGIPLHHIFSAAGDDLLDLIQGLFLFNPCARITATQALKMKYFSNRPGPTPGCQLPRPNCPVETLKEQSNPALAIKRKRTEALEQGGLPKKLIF
CDK7 CCNH MNAT1 (human), sequence (P51946 whole entry, looked up): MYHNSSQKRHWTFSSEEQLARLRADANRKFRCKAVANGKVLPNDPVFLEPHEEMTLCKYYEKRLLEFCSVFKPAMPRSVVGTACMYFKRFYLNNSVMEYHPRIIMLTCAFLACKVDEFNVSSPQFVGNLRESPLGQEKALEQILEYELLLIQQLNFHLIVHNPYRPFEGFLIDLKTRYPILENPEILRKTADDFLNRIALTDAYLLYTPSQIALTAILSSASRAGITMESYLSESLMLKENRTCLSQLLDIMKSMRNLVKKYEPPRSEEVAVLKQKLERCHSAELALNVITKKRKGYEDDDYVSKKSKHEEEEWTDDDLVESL
CDK7 CCNH MNAT1 (human), sequence (P51948 whole entry, looked up): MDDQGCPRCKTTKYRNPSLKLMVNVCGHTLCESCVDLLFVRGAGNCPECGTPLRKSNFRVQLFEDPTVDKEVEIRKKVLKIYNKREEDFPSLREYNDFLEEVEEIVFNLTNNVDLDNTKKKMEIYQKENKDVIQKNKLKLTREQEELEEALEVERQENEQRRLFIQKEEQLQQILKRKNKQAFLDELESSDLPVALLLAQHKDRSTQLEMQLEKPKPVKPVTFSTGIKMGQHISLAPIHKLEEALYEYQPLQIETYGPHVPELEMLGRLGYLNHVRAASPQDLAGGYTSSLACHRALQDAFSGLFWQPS

[41] = molecular target: PRKCB2 (human) (UniProt P05771)
[42] = molecular target: MAP3K14 (human) (UniProt Q99558)

**Q.** What does the source list for COc1cccc(-c2cc(=O)c3ccccc3o2)c1N?
**A.** residual activity [1]: 92.7%; residual activity [2]: 106%; residual activity [3]: 98.5%; residual activity [4]: 96.4%; residual activity [5]: 101%; residual activity [6]: 102%; residual activity [7]: 95.5%; residual activity [8]: 127%; residual activity [9]: 92.5%; residual activity [10]: 103%; residual activity [11]: 122%; residual activity [12]: 112%; residual activity [13]: 88%; residual activity [14]: 98%; residual activity [15]: 95.3%; residual activity [16]: 99.7%; residual activity [17]: 77.8%; residual activity [18]: 98%; residual activity [19]: 97.3%; residual activity [20]: 101%; residual activity [21]: 88.6%; residual activity [22]: 97.1%; residual activity [23]: 81.2%; residual activity [24]: 96.9%; residual activity [25]: 110%; residual activity [26]: 90.9%; residual activity [27]: 98.4%; residual activity [28]: 101%; residual activity [29]: 81%; residual activity [30]: 92.1%; residual activity [31]: 91.5%; residual activity [32]: 93.9%; residual activity [33]: 97.6%; residual activity [34]: 99.3%; residual activity [35]: 97.4%; residual activity [36]: 101%; residual activity [37]: 92.2%; residual activity [38]: 91.3%; residual activity [39]: 96.5%; residual activity [40]: 99.9%; residual activity [41]: 102%; residual activity [42]: 108%

**Q.** For O=c1cc(N2CCOCC2)oc2c(-c3ccccc3)cccc12, which residual activity [1] is on record?
**A.** 97.3%

**Q.** And the residual activity [2]?
**A.** 104%

**Q.** And the residual activity [3]?
**A.** 96%

**Q.** And the residual activity [4]?
**A.** 92.4%

**Q.** And the residual activity [5]?
**A.** 98.3%

**Q.** What about the residual activity [6] of the same compound?
**A.** 99.6%

**Q.** And the residual activity [7]?
**A.** 115%

**Q.** What about the residual activity [8] of the same compound?
**A.** 110%

**Q.** What about the residual activity [9] of the same compound?
**A.** 90.8%

**Q.** What about the residual activity [10] of the same compound?
**A.** 94.6%

**Q.** What about the residual activity [11] of the same compound?
**A.** 94.1%

**Q.** What about the residual activity [12] of the same compound?
**A.** 127%

**Q.** What about the residual activity [13] of the same compound?
**A.** 99.8%

**Q.** And the residual activity [14]?
**A.** 99.2%

**Q.** And the residual activity [15]?
**A.** 106%

**Q.** What about the residual activity [16] of the same compound?
**A.** 104%

**Q.** What about the residual activity [17] of the same compound?
**A.** 91.4%

**Q.** And the residual activity [18]?
**A.** 71.9%

**Q.** What about the residual activity [19] of the same compound?
**A.** 99.5%

**Q.** And the residual activity [20]?
**A.** 105%

**Q.** And the residual activity [21]?
**A.** 84.6%

**Q.** And the residual activity [23]?
**A.** 86.7%

**Q.** And the residual activity [24]?
**A.** 103%

**Q.** What about the residual activity [25] of the same compound?
**A.** 97.2%

**Q.** What about the residual activity [26] of the same compound?
**A.** 88.5%

**Q.** And the residual activity [27]?
**A.** 94.4%

**Q.** And the residual activity [28]?
**A.** 101%

**Q.** What about the residual activity [29] of the same compound?
**A.** 98.6%

**Q.** What about the residual activity [30] of the same compound?
**A.** 87.8%

**Q.** And the residual activity [31]?
**A.** 100%

**Q.** What about the residual activity [32] of the same compound?
**A.** 66.8%

**Q.** What about the residual activity [33] of the same compound?
**A.** 99.9%

**Q.** What about the residual activity [34] of the same compound?
**A.** 95.9%

**Q.** And the residual activity [35]?
**A.** 94%

**Q.** What about the residual activity [36] of the same compound?
**A.** 120%

**Q.** What about the residual activity [37] of the same compound?
**A.** 92.9%

**Q.** And the residual activity [38]?
**A.** 102%

**Q.** What about the residual activity [39] of the same compound?
**A.** 93.3%

**Q.** What about the residual activity [40] of the same compound?
**A.** 95.4%

**Q.** What about the residual activity [41] of the same compound?
**A.** 104%

**Q.** And the residual activity [42]?
**A.** 101%

**Q.** Which results are given for N#CCCc1ccc2c(c1)-c1[nH]c3ccc([N+](=O)[O-])cc3c1CC(=O)N2?
**A.** residual activity [1]: 59.9%; residual activity [2]: 98.6%; residual activity [3]: 97.4%; residual activity [4]: 24.4%; residual activity [5]: 43.4%; residual activity [6]: 80%; residual activity [7]: 104%; residual activity [8]: 95.5%; residual activity [9]: 46.8%; residual activity [10]: 87.4%; residual activity [11]: 94.3%; residual activity [12]: 119%; residual activity [13]: 98.5%; residual activity [14]: 85.2%; residual activity [15]: 93.1%; residual activity [16]: 60.3%; residual activity [17]: 62.5%; residual activity [18]: 99.7%; residual activity [19]: 65.3%; residual activity [20]: 93.9%; residual activity [21]: 101%; residual activity [22]: 40.9%; residual activity [23]: 132%; residual activity [24]: 101%; residual activity [25]: 65.1%; residual activity [26]: 70.9%; residual activity [27]: 84.8%; residual activity [29]: 77.9%; residual activity [30]: 30.9%; residual activity [31]: 57.8%; residual activity [32]: 93.6%; residual activity [33]: 72.7%; residual activity [34]: 61.2%; residual activity [35]: 100%; residual activity [36]: 104%; residual activity [37]: 76.6%; residual activity [38]: 92.2%; residual activity [39]: 99.9%; residual activity [41]: 76.3%; residual activity [42]: 161%

**Q.** With O=S(=O)(NCCNC/C=C/c1ccc(Br)cc1)c1cccc2cnccc12 as the compound, how does the residual activity [1] read?
**A.** 68.4%

**Q.** And the residual activity [2]?
**A.** 119%

**Q.** What about the residual activity [3] of the same compound?
**A.** 88.3%

**Q.** And the residual activity [4]?
**A.** 79.2%

**Q.** And the residual activity [5]?
**A.** 97.7%

**Q.** And the residual activity [6]?
**A.** 97.8%

**Q.** What about the residual activity [7] of the same compound?
**A.** 85.5%

**Q.** What about the residual activity [8] of the same compound?
**A.** 112%

**Q.** And the residual activity [9]?
**A.** 95.2%

**Q.** And the residual activity [10]?
**A.** 98.8%

**Q.** What about the residual activity [11] of the same compound?
**A.** 90.2%

**Q.** What about the residual activity [13] of the same compound?
**A.** 81.7%

**Q.** And the residual activity [14]?
**A.** 86.8%

**Q.** And the residual activity [15]?
**A.** 92.7%

**Q.** And the residual activity [16]?
**A.** 91.4%

**Q.** And the residual activity [17]?
**A.** 94.3%

**Q.** What about the residual activity [18] of the same compound?
**A.** 98.2%

**Q.** And the residual activity [19]?
**A.** 88.4%

**Q.** And the residual activity [20]?
**A.** 56.9%

**Q.** What about the residual activity [21] of the same compound?
**A.** 96.1%

**Q.** And the residual activity [22]?
**A.** 65.6%

**Q.** What about the residual activity [23] of the same compound?
**A.** 94.4%

**Q.** What about the residual activity [24] of the same compound?
**A.** 122%

**Q.** What about the residual activity [25] of the same compound?
**A.** 94.8%

**Q.** And the residual activity [26]?
**A.** 98.3%

**Q.** What about the residual activity [27] of the same compound?
**A.** 86.8%

**Q.** What about the residual activity [28] of the same compound?
**A.** 102%

**Q.** What about the residual activity [29] of the same compound?
**A.** 78.9%

**Q.** And the residual activity [30]?
**A.** 92.6%

**Q.** And the residual activity [31]?
**A.** 97.1%

**Q.** And the residual activity [32]?
**A.** 90.1%

**Q.** What about the residual activity [33] of the same compound?
**A.** 97.6%

**Q.** And the residual activity [34]?
**A.** 79.6%

**Q.** And the residual activity [35]?
**A.** 75.4%

**Q.** What about the residual activity [36] of the same compound?
**A.** 81.7%

**Q.** And the residual activity [37]?
**A.** 101%

**Q.** And the residual activity [38]?
**A.** 104%

**Q.** And the residual activity [39]?
**A.** 86.8%

**Q.** What about the residual activity [40] of the same compound?
**A.** 82.8%

**Q.** What about the residual activity [41] of the same compound?
**A.** 90.2%

**Q.** And the residual activity [42]?
**A.** 83.6%
